This passage reports chequerboard results results from patent US20200197480A1, “COMBINATION COMPRISING A PARTICULAR POLYMYXIN” (HELPERBY THERAPEUTICS LIMITED, priority 2017, published 2020).

In assay [1] the test system is NDM-1 Klebsiella pneumoniae subsp. pneumoniae (BAA2472). Description: chequerboard analysis, log phase culture, 24 hours incubation, FICI calculated. The assay is classed as cell-based. How it is done: • Bacterial strain used: BAA2472 strain of NDM-1 Klebsiella pneumoniae subsp. pneumoniae from ATCC®. • Growth of bacteria: Log phase growth of the bacteria was carried out according to methods known in the art. • Compounds and preparation: • (i) HT0160010 was obtained from a commercial source and dissolved in DMSO to make a stock concentration of 10 mg/ml. • (ii) Colistimethate sodium (CMS) was obtained from a commercial source (e.g. Sigma Aldrich) at a concentration of 10 mg/ml.
(§1) Log phase bacterial culture was incubated with HT0160010 and CMS in combination using the chequerboard method known in the art. The overnight culture was diluted with nutrient broth (Oxoid) to 10^7 CFU/ml and 280 μl of the culture was added to each well to make a final concentration of 300 μl. Incubation of the compounds with the bacterial suspension was carried out for 24 hours. The HT0160010 concentration ranged from 128 to 0 μg/ml and the CMS concentration ranged from 16 to 0 μg/ml.
(§2) The effects of the combination were examined by calculating the fractional inhibitory concentration index (FICI) of each combination, as follows: (MIC of drug A, tested in combination)/(MIC of drug A, tested alone)+(MIC of drug B, tested in combination)/(MIC of drug B, tested alone). The interaction of the combination was defined as showing synergy if the FICI was ≤0.5, no interaction if the FICI was ≥0.5 but ≤4.0 and antagonism if the FICI was ≥4.0.
• Bacterial strain used: BAA2472 strain of NDM-1 Klebsiella pneumoniae subsp. pneumoniae from ATCC®. • Growth of bacteria: Log phase growth of the bacteria was carried out according to methods known in the art.
• (i) HT0160009 was obtained from a commercial source and dissolved in DMSO to make a stock concentration of 10 mg/ml. • (ii) Colistimethate sodium (CMS) was obtained from a commercial source (e.g. Sigma Aldrich) at a concentration of 10 mg/ml.
(§3) Log phase bacterial culture was incubated with HT0160009 and CMS in combination using the chequerboard method known in the art. The overnight culture was diluted with nutrient broth (Oxoid) to 10^7 CFU/ml and 280 μl of the culture was added to each well to make a final concentration of 300 μl. Incubation of the compounds with the bacterial suspension was carried out for 24 hours. The HT0160010 concentration ranged from 256 to 0 μg/ml and the CMS concentration ranged from 16 to 0 μg/ml.
The effects of the combination were examined by calculating the FICI in the same manner as Example 1.

Assay [2] deals with NDM-1 Escherichia coli (BAA2469). Described as above. The assay is classed as cell-based. Also on record: key: FICI; ≤0.5 synergy, 0.5–4.0 no interaction, ≥4.0 antagonism. As for the experimental part: as §1, §2
• Bacterial strain used: BAA2469 strain of NDM-1 E. coli from ATCC®. • Growth of bacteria: Log phase growth of the bacteria was carried out according to methods known in the art.
Compounds and preparation were the same as Example 1. The effects of the combination were also examined by calculating the FICI in the same manner as Example 1.
as §3
Compounds and preparation were the same as Example 3. The effects of the combination were also examined by calculating the FICI in the same manner as Example 3.

Where [3] appears, read: CMS 0.015625 μg/ml, HT0160010 0.

Colistimethate sodium [CMS]: the chequerboard results in assay [1] (setting [3]) is listed as 0.54; in assay [1] (CMS 0.016 μg/ml, HT0160009 0), 0.52; in assay [1] (CMS 0.031 μg/ml, HT0160009 0), 0.52; in assay [1] (CMS 0.03125 μg/ml, HT0160010 0), 0.53; in assay [1] (CMS 0.0625 μg/ml, HT0160010 0), 0.54; in assay [1] (CMS 0.063 μg/ml, HT0160009 0) it was 0.53. Besides, the chequerboard results is reported as 0.53 in assay [1] (CMS 0.125 μg/ml, HT0160009 0); 0.52 in assay [1] (CMS 0.125 μg/ml, HT0160010 0); 0.53 in assay [1] (CMS 0.25 μg/ml, HT0160009 0); 0.51 in assay [1] (CMS 0.25 μg/ml, HT0160010 0); 0.53 in assay [1] (CMS 0.5 μg/ml, HT0160009 0); 0.52 in assay [1] (CMS 0.5 μg/ml, HT0160010 0). The chequerboard results in assay [1] (CMS 1 μg/ml, HT0160009 0) was 0.50; in assay [1] (CMS 1 μg/ml, HT0160010 0), 0.41; in assay [1] (CMS 2 μg/ml, HT0160009 0), 0.04; in assay [1] (CMS 2 μg/ml, HT0160010 0), 0.05; in assay [1] (CMS 4 μg/ml, HT0160009 0) it was 0.04; in assay [1] (CMS 4 μg/ml, HT0160010 0), 0.04. Also, the chequerboard results was 0.04 in assay [1] (CMS 8 μg/ml, HT0160009 0); 0.05 in assay [1] (CMS 8 μg/ml, HT0160010 0); 0.04 in assay [1] (CMS 16 μg/ml, HT0160009 0); 0.05 in assay [1] (CMS 16 μg/ml, HT0160010 0); 0.59 in assay [2] (setting [3]); 0.62 in assay [2] (CMS 0.016 μg/ml, HT0160009 0). Also, the chequerboard results in assay [2] (CMS 0.031 μg/ml, HT0160009 0) is 0.64; in assay [2] (CMS 0.03125 μg/ml, HT0160010 0), 0.68; in assay [2] (CMS 0.0625 μg/ml, HT0160010 0) it was 0.61; in assay [2] (CMS 0.063 μg/ml, HT0160009 0), 0.66; in assay [2] (CMS 0.125 μg/ml, HT0160009 0), 0.63; in assay [2] (CMS 0.125 μg/ml, HT0160010 0), 0.59. Further, the chequerboard results in assay [2] (CMS 0.25 μg/ml, HT0160009 0) is recorded as 0.62; in assay [2] (CMS 0.25 μg/ml, HT0160010 0), 0.61; in assay [2] (CMS 0.5 μg/ml, HT0160009 0), 0.62; in assay [2] (CMS 0.5 μg/ml, HT0160010 0), 0.59; in assay [2] (CMS 1 μg/ml, HT0160009 0), 0.56; in assay [2] (CMS 1 μg/ml, HT0160010 0), 0.55. For the same compound, the chequerboard results in assay [2] (CMS 2 μg/ml, HT0160009 0) is 0.55; in assay [2] (CMS 2 μg/ml, HT0160010 0), 0.54; in assay [2] (CMS 4 μg/ml, HT0160009 0), 0.05; in assay [2] (CMS 4 μg/ml, HT0160010 0), 0.18; in assay [2] (CMS 8 μg/ml, HT0160009 0) it was 0.05; in assay [2] (CMS 8 μg/ml, HT0160010 0) it was 0.05. The chequerboard results is listed as 0.05 in assay [2] (CMS 16 μg/ml, HT0160009 0) and 0.05 in assay [2] (CMS 16 μg/ml, HT0160010 0).

As to `O=C(c1cc(C(F)(F)F)nc2c(C(F)(F)F)cccc12)C1CCCCN1` (stereo not shown) [HT0160009], the chequerboard results in assay [1] (HT0160009 4 μg/ml, CMS 0) was 0.50; in assay [1] (HT0160009 8 μg/ml, CMS 0), 0.50; in assay [1] (HT0160009 16 μg/ml, CMS 0), 0.49; in assay [1] (HT0160009 32 μg/ml, CMS 0), 0.25; in assay [1] (HT0160009 64 μg/ml, CMS 0) it was 0.17; in assay [1] (HT0160009 128 μg/ml, CMS 0) it was 0.14. Moreover, the chequerboard results in assay [1] (HT0160009 256 μg/ml, CMS 0) is 0.05; in assay [2] (HT0160009 4 μg/ml, CMS 0), 0.61; in assay [2] (HT0160009 8 μg/ml, CMS 0), 0.54; in assay [2] (HT0160009 16 μg/ml, CMS 0), 0.58; in assay [2] (HT0160009 32 μg/ml, CMS 0) it was 0.32; in assay [2] (HT0160009 64 μg/ml, CMS 0) it was 0.22. The chequerboard results in assay [2] (HT0160009 128 μg/ml, CMS 0) is 0.21; in assay [2] (HT0160009 256 μg/ml, CMS 0), 0.05.

Take `OC(c1ccccn1)c1cc(C(F)(F)F)nc2c(C(F)(F)F)cccc12` (stereo not shown) [HT0160010, (2,8-bis-trifluoromethyl-quinolin-4-yl)-pyridin-2-yl-methanol]: the chequerboard results is given as 0.54 in assay [1] (HT0160010 4 μg/ml, CMS 0); 0.57 in assay [1] (HT0160010 8 μg/ml, CMS 0); 0.56 in assay [1] (HT0160010 16 μg/ml, CMS 0); 0.56 in assay [1] (HT0160010 32 μg/ml, CMS 0); 0.56 in assay [1] (HT0160010 64 μg/ml, CMS 0); 0.57 in assay [1] (HT0160010 128 μg/ml, CMS 0). Besides, the chequerboard results is recorded as 0.62 in assay [2] (HT0160010 4 μg/ml, CMS 0); 0.58 in assay [2] (HT0160010 8 μg/ml, CMS 0); 0.61 in assay [2] (HT0160010 16 μg/ml, CMS 0); 0.62 in assay [2] (HT0160010 32 μg/ml, CMS 0); 0.64 in assay [2] (HT0160010 64 μg/ml, CMS 0); 0.61 in assay [2] (HT0160010 128 μg/ml, CMS 0).
